For series [1], the system named is GAS (NZ131). Put plainly: Radial diffusion assay against GAS. Type of series: cell-based, group A streptococcus. The note with it: fraction purified from MO34 conditioned media. The text has this:
(a) Screening for antimicrobial activity of culture supernatant from 44 strains of S. epidermidis strains isolated from normal human skin by radial diffusion assay against group A streptococcus (GAS). Data represent diameter of growth inhibition zone of conditioned media of each strain. UD=undetectable. (b) Elution profile of the antimicrobial compound purified from culture supernatant of S. epidermidis MO34 by HPLC using a PolyHYDROXYMETHYL. The last step of 5 purification steps is shown. The insert panel represents antimicrobial activity of each fraction on radial diffusion assay against GAS. Green line represents a gradient of H2O in acetonitrile. […] Antimicrobial activity against GAS was determined by radial diffusion assay. […]
S. epidermidis strains from human skin produce non-proteinaceous antibiotic. To screen for commensal skin bacteria producing antimicrobial activity, 44 strains of S. epidermidis from clinical isolates of normal human skin were cultured overnight and the antimicrobial activity produced by each isolate was determined by radial diffusion assay of their conditioned media against GAS (FIG. 1a). […]

Series [2] concerns normal human keratinocytes (NHEK). Put plainly: Cell proliferation assay (BrdU incorporation). Type of series: cell-based. The note with it: 24-hr incubation, until a very high dose (100 μg/mL). As for the experimental part:
(§1) (a-b) Selective antiproliferative activity of 6-HAP against Pam212 squamous cell carcinoma, but not against normal keratinocytes. BrdU incorporation into Pam212 cells (b) or NHEKs (b) after 4-hr or 24-hr incubation, respectively, in suitable media containing indicated concentrations of 6-HAP or mitomycin C (10 μg/mL) (a). (c) Expression of mARC1 and mARC2 in NHEKs, squamous cell carcinoma (Pam212), melanoma (B16F10) and lymphoma cell lines (L5178). To compare relative expression level in each cells, data was shown as relative to GAPDH expression. (d) Expression of mARC1 and mARC2 in NHEKs treated with control siRNA, mARCI siRNA and mARC2 siRNA. (e) Effect of gene silencing with mARC1 and mARC2 siRNA on sensitivity to 6-HAP in NHEKs. NHEKs treated with each siRNA were incubated for 48 hrs and then incubated with 10 μg/mL of 6-HAP for 24 hrs.
Cell culture and cell proliferation assay. B16F10 mouse melanoma, Pam212, L5178 and YAC-1 mouse […] cell lines were obtained from American Type Culture Collection. […] After 4-hr (tumor cell lines) or 24-hr (NHEK) incubation with 6-HAP, proliferative activity of cells was colorimetrically determined by monitoring BrdU incorporation with Cell Proliferation kit according to the manual (Roche).

In series [3] the test system is B16F10 melanoma. Put plainly: Cell proliferation assay (BrdU incorporation). Type of series: cell-based, mouse. The note with it: B16F10, 4-hr incubation. As for the experimental part:
(§2) Proliferative activity of tumor cell line, L5178 (a), YAC-1 lymphoma (b), B16F10 melanoma (c) after 4-hr incubation in suitable media containing indicated concentrations of 6-HAP or mitomycin C (10 μg/mL). Proliferative activity of cells was determined by monitoring BrdU incorporation. The data represent mean±SE of four individual experiments.
(§3) Cell culture and cell proliferation assay. B16F10 mouse melanoma, Pam212, L5178 and YAC-1 mouse […] cell lines were obtained from American Type Culture Collection. Pam212, L5178 and YAC-1 cell lines were maintained in RPMI-1640 supplemented with sodium pyruvate (1 mM), nonessential amino acids (0.1 mM), penicillin (100 unit/mL), streptomycin (100 μg/mL) and 10% heat-inactivated fetal bovine serum (FBS) or horse serum at 37° C. under atmosphere of 5% (v/v) CO2 in air. B16F10 cell line was maintained in DMEM supplemented with penicillin (100 unit/mL), streptomycin (100 μg/mL) and 10% heat-inactivated FBS. NHEKs were obtained from Invitrogen (Life technologies, Grand Island, NY) and maintained in EpiLife medium (Life technologies) supplemented with 60 μM Calcium, epidermal growth factors, penicillin and streptomycin. After 4-hr (tumor cell lines) or 24-hr (NHEK) incubation with 6-HAP, proliferative activity of cells was colorimetrically determined by monitoring BrdU incorporation with Cell Proliferation kit according to the manual (Roche).

Series [4] concerns YAC-1 lymphoma. Put plainly: Cell proliferation assay (BrdU incorporation). Type of series: cell-based, mouse. The note with it: YAC-1, 4-hr incubation. As to the method:
as §2, §3

The test system of series [5] is L5178 lymphoma. The experiment in a line: Cell proliferation assay (BrdU incorporation). The series is classed as cell-based, mouse. The note with it: L5178, 4-hr incubation. As to the method:
as §2, §3

In series [6] the test system is NHEKs treated with mARC1 and mARC2 siRNA. Put plainly: Gene silencing of mARCs with siRNA, sensitivity to 6-HAP. The series is classed as cell-based, human. The note with it: 6-HAP 10 μg/mL for 24 hrs, BrdU incorporation. As to the method:
as §1
Gene silencing of mARCs with siRNA. NHEK was cultured in EpiLife® media containing pre-designed siRNA for mARC1 or mARC2 (Thermo Fisher, Waltham, MA), and RNAiMAX® reagent for 24 hrs. Cells were maintained in EpiLife for 72 hrs, and incubated with 6-HAP (10 μg/mL) for 24 hrs. Anti-proliferative activity of 6-HAP was determined by measuring BrdU incorporation as described above.
In mammalian cells, mitochondrial […] reducing components (mARC) 1 and 2 have shown to be capable of reducing N-hydroxylated nucleobase analogs to canonical nucleobases. […]

On to `ONc1ncnc2nc[nH]c12` [6-HAP, 6-N-hydroxyaminopurine], for which the “zones of inhibition of GAS growth by purified fraction” value in series [1] is listed as “strong zones of inhibition”. Moreover, the BrdU incorporation result in series [2] is “not affected”; in series [3], “inhibited”; in series [4], “inhibited”; in series [5], “inhibited”. In series [6], the “cellular sensitivity to 6-HAP after mARC1 and mARC2 gene silencing” value is “increased cellular sensitivity”.

For the origin of these results see US12427151B2, “Compositions and method of treating cancer” (The Regents of the University of California, priority 2017, dated 2025).
